In the kinase profiling compilation of Christmann-Franck et al. (2016):
Where “and” joins values, the source holds several entries; their conditions need not be identical. Equal values may be shown once.

Assays:
DYRK2 (human) = DYRK2 (human) (UniProt Q92630)
PIM1 (human) = PIM1 (human) (UniProt P11309)
PDPK1 (human) = PDPK1 (human) (UniProt O15530)
AURKB (human) = AURKB (human) (UniProt Q96GD4)
PRKCZ (human) = PRKCZ (human) (UniProt Q05513)
BRSK2 (human) = BRSK2 (human) (UniProt Q8IWQ3)
CHEK2 (human) = CHEK2 (human) (UniProt O96017)
TBK1 (human) = TBK1 (human) (UniProt Q9UHD2)
Sequence of TBK1 (human) (Q9UHD2 whole entry, looked up): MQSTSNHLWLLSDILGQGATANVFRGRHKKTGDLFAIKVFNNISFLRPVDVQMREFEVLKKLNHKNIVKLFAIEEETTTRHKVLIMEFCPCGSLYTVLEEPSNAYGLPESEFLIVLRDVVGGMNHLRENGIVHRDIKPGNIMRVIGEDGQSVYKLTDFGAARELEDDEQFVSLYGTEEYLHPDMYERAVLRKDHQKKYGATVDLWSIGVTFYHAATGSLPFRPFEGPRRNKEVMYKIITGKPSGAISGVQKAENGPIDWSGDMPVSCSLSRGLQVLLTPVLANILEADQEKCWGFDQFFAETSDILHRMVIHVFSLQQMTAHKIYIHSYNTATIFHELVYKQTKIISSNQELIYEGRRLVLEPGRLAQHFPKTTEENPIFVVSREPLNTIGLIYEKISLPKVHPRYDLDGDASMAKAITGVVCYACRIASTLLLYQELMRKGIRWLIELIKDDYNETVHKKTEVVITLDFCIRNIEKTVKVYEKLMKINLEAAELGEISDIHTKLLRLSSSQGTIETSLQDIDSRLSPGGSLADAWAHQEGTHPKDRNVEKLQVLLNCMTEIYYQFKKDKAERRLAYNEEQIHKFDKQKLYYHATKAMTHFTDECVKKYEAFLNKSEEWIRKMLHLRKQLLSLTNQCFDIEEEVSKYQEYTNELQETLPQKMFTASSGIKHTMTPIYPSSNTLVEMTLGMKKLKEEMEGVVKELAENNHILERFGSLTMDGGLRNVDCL

MAPK14 (human) = MAPK14 (human) (UniProt Q16539)
FLT1 (human) = FLT1 (human) (UniProt P17948)
Sequence of FLT1 (human) (P17948 whole entry, looked up): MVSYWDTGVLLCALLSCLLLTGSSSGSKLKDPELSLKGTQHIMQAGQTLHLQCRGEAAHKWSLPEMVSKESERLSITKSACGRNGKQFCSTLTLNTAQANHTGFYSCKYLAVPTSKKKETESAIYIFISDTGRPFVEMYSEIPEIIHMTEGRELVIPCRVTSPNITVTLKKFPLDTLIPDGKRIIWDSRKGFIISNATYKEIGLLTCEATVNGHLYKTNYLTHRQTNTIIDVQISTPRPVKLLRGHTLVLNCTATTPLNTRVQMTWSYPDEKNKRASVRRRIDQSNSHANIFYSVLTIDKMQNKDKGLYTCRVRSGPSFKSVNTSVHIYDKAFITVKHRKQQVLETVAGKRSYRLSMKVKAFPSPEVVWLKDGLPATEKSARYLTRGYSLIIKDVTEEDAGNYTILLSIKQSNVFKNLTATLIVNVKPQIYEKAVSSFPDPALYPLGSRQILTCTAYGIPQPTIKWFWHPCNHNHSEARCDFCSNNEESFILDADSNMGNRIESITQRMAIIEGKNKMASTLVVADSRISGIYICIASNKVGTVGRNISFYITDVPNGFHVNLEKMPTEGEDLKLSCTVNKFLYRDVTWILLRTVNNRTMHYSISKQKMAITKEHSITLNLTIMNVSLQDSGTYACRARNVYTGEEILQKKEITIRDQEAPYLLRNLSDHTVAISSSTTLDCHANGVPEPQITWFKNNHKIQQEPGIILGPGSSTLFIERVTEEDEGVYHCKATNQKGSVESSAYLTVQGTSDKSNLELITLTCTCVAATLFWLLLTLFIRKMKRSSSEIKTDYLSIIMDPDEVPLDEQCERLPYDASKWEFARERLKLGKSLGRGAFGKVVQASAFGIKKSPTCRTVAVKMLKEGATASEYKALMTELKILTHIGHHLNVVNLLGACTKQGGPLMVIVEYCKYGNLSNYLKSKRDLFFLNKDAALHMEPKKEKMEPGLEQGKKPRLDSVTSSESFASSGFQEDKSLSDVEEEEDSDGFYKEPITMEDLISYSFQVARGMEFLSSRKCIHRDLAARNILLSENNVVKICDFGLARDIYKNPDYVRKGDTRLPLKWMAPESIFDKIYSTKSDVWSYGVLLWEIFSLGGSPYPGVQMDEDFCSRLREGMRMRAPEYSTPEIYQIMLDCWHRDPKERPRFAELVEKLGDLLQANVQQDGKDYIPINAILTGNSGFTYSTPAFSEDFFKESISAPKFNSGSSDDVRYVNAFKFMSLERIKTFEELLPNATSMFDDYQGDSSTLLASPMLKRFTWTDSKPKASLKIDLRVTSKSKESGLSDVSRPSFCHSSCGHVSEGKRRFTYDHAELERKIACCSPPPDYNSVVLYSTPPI

[1] = system: SGK1 (human), O00141 [S422D]
RPS6KA3 KD1 KD2 (human) = RPS6KA3 KD1 KD2 (human) (UniProt P51812)
RPS6KA1 KD1 KD2 (human) = RPS6KA1 KD1 KD2 (human) (UniProt Q15418)
PAK6 (human) = PAK6 (human) (UniProt Q9NQU5)
CSNK2A1 (human) = CSNK2A1 (human) (UniProt P68400)
MAPK15 (human) = MAPK15 (human) (UniProt Q8TD08)
MAPKAPK5 (human) = MAPKAPK5 (human) (UniProt Q8IW41)
INSRR (human) = INSRR (human) (UniProt P14616)
SYK (human) = SYK (human) (UniProt P43405)
PRKCA (human) = PRKCA (human) (UniProt P17252)
[2] = system: RPS6KB1 (human), P23443 [T412E]
MARK3 (human) = MARK3 (human) (UniProt P27448)
YES1 (human) = YES1 (human) (UniProt P07947)
Sequence of YES1 (human) (P07947 whole entry, looked up): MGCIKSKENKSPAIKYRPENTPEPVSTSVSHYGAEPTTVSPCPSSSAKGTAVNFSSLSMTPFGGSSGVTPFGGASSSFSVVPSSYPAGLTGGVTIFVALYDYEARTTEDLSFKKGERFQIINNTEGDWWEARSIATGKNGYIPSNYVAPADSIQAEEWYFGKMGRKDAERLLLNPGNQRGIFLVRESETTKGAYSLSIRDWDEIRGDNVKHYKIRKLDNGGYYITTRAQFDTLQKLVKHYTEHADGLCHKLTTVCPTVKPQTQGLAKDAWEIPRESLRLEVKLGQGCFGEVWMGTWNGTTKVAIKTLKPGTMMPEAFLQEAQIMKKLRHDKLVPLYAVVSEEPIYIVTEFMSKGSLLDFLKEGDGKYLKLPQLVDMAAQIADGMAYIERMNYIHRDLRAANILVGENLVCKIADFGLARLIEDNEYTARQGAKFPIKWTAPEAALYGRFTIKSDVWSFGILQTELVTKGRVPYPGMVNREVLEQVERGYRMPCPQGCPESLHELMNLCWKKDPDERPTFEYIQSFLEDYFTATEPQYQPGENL

BTK (human) = BTK (human) (UniProt Q06187)
Sequence of BTK (human) (Q06187 whole entry, looked up): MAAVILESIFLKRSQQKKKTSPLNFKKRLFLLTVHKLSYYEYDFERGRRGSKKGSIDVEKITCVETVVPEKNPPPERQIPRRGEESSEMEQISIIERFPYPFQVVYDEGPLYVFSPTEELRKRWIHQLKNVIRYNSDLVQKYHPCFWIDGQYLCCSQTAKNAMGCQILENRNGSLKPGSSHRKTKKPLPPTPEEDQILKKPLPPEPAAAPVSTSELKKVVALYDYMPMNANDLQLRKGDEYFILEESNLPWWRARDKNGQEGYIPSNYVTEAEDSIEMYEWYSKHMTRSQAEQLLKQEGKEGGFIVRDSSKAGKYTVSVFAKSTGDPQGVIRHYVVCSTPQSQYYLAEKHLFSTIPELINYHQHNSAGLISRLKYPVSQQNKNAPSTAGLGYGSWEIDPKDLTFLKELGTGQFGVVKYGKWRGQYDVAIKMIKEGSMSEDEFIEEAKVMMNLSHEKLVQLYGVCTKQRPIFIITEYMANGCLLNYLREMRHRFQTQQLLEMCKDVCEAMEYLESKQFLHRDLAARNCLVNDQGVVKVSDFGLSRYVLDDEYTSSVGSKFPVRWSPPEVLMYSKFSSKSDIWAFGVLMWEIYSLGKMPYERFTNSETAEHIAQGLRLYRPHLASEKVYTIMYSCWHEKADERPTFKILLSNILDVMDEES

MAPK3 (human) = MAPK3 (human) (UniProt P27361)
MST4 (human) = MST4 (human) (UniProt Q9P289)
MAPK8 (human) = MAPK8 (human) (UniProt P45983)
DYRK3 (human) = DYRK3 (human) (UniProt O43781)
GSK3B (human) = GSK3B (human) (UniProt P49841)
EEF2K (human) = EEF2K (human) (UniProt O00418)
IKBKB (human) = IKBKB (human) (UniProt O14920)
NEK2 (human) = NEK2 (human) (UniProt P51955)
Sequence of NEK2 (human) (P51955 whole entry, looked up): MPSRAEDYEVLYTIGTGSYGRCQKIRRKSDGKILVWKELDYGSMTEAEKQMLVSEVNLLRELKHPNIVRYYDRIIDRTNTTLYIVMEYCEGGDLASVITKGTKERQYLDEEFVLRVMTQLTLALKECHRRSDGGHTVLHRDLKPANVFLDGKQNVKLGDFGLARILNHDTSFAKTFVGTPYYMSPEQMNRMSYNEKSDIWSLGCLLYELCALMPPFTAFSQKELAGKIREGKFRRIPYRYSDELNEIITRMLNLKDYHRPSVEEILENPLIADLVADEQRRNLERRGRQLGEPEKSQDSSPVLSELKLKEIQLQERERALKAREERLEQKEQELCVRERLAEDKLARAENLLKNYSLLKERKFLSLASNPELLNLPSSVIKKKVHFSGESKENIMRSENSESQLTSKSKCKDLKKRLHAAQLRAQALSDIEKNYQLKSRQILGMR

IKBKE (human) = IKBKE (human) (UniProt Q14164)
Sequence of IKBKE (human) (Q14164 whole entry, looked up): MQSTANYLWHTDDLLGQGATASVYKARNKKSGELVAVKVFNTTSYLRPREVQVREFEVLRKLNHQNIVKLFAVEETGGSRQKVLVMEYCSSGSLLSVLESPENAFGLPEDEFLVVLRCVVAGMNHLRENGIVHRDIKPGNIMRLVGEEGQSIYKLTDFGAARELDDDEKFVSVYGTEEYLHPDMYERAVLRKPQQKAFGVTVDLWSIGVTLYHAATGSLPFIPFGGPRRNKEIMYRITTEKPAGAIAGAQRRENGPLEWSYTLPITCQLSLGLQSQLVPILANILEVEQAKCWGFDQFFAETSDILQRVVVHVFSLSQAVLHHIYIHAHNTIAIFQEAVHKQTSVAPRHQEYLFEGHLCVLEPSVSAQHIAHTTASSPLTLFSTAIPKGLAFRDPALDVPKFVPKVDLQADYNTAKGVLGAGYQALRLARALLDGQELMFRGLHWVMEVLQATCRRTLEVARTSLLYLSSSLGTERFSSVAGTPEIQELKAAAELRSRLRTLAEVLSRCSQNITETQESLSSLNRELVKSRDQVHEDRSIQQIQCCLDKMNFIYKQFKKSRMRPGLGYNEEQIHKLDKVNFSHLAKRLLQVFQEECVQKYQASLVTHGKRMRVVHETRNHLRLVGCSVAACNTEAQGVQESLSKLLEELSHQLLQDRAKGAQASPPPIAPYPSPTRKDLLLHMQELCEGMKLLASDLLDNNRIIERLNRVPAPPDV

Sequence of PDPK1 (human) (O15530 whole entry, looked up): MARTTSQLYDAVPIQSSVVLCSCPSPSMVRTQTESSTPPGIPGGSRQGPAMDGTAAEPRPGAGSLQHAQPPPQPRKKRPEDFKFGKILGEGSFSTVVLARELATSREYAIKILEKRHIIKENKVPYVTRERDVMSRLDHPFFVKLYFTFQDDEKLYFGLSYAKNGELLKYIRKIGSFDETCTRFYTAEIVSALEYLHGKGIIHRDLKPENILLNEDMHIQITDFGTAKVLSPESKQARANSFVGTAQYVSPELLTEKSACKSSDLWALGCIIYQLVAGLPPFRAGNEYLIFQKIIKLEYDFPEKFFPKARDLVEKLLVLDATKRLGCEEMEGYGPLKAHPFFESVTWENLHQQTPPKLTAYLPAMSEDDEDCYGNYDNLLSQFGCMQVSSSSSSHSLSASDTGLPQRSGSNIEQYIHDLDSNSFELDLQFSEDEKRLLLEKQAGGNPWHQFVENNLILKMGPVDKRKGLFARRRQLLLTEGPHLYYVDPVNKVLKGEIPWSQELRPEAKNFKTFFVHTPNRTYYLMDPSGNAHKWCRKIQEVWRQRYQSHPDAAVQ

SMILES: CC(C)n1nc(-c2cc3cc(O)ccc3[nH]2)c2c(N)ncnc21
- per cent of control (DYRK2 (human); compound 1.0 µM): 17%
- per cent of control (DYRK2 (human); compound 10.0 µM): 7%
- per cent of control (PIM1 (human); compound 1.0 µM): 74%
- per cent of control (PIM1 (human); compound 10.0 µM): 21%
- per cent of control (PDPK1 (human); compound 1.0 µM): 83% and 93%
- per cent of control (PDPK1 (human); compound 10.0 µM): 60% and 71%
- per cent of control (AURKB (human); compound 1.0 µM): 78%
- per cent of control (AURKB (human); compound 10.0 µM): 27%
- per cent of control (PRKCZ (human); compound 1.0 µM): 91%
- per cent of control (PRKCZ (human); compound 10.0 µM): 51%
- per cent of control (BRSK2 (human); compound 1.0 µM): 26%
- per cent of control (BRSK2 (human); compound 10.0 µM): 4%
- per cent of control (CHEK2 (human); compound 1.0 µM): 31%
- per cent of control (CHEK2 (human); compound 10.0 µM): 2%
- per cent of control (TBK1 (human); compound 1.0 µM): 97%
- per cent of control (TBK1 (human); compound 10.0 µM): 95%
- per cent of control (MAPK14 (human); compound 1.0 µM): 95%
- per cent of control (MAPK14 (human); compound 10.0 µM): 90%
- per cent of control (FLT1 (human); compound 1.0 µM): 11%
- per cent of control (FLT1 (human); compound 10.0 µM): 2%
- per cent of control ([1]; compound 1.0 µM): 85%
- per cent of control ([1]; compound 10.0 µM): 69%
- per cent of control (RPS6KA3 KD1 KD2 (human); compound 1.0 µM): 63%
- per cent of control (RPS6KA3 KD1 KD2 (human); compound 10.0 µM): 16%
- per cent of control (RPS6KA1 KD1 KD2 (human); compound 1.0 µM): 53%
- per cent of control (RPS6KA1 KD1 KD2 (human); compound 10.0 µM): 19%
- per cent of control (PAK6 (human); compound 1.0 µM): 80%
- per cent of control (PAK6 (human); compound 10.0 µM): 38%
- per cent of control (CSNK2A1 (human); compound 1.0 µM): 72%
- per cent of control (CSNK2A1 (human); compound 10.0 µM): 40%
- per cent of control (MAPK15 (human); compound 1.0 µM): 50%
- per cent of control (MAPK15 (human); compound 10.0 µM): 6%
- per cent of control (MAPKAPK5 (human); compound 1.0 µM): 97%
- per cent of control (MAPKAPK5 (human); compound 10.0 µM): 92%
- per cent of control (INSRR (human); compound 1.0 µM): 47%
- per cent of control (INSRR (human); compound 10.0 µM): 29%
- per cent of control (SYK (human); compound 1.0 µM): 89%
- per cent of control (SYK (human); compound 10.0 µM): 61%
- per cent of control (PRKCA (human); compound 1.0 µM): 13%
- per cent of control (PRKCA (human); compound 10.0 µM): 9%
- per cent of control ([2]; compound 1.0 µM): 80%
- per cent of control ([2]; compound 10.0 µM): 50%
- per cent of control (MARK3 (human); compound 1.0 µM): 67%
- per cent of control (MARK3 (human); compound 10.0 µM): 31%
- per cent of control (YES1 (human); compound 1.0 µM): -2%
- per cent of control (YES1 (human); compound 10.0 µM): -8%
- per cent of control (BTK (human); compound 1.0 µM): 20%
- per cent of control (BTK (human); compound 10.0 µM): 5%
- per cent of control (MAPK3 (human); compound 1.0 µM): 88%
- per cent of control (MAPK3 (human); compound 10.0 µM): 81%
- per cent of control (MST4 (human); compound 1.0 µM): 42%
- per cent of control (MST4 (human); compound 10.0 µM): 13%
- per cent of control (MAPK8 (human); compound 1.0 µM): 94%
- per cent of control (MAPK8 (human); compound 10.0 µM): 103%
- per cent of control (DYRK3 (human); compound 1.0 µM): 10%
- per cent of control (DYRK3 (human); compound 10.0 µM): 2%
- per cent of control (GSK3B (human); compound 1.0 µM): 103%
- per cent of control (GSK3B (human); compound 10.0 µM): 60%
- per cent of control (EEF2K (human); compound 1.0 µM): 115%
- per cent of control (EEF2K (human); compound 10.0 µM): 106%
- per cent of control (IKBKB (human); compound 1.0 µM): 85%
- per cent of control (IKBKB (human); compound 10.0 µM): 84%
- per cent of control (NEK2 (human); compound 1.0 µM): 86%
- per cent of control (NEK2 (human); compound 10.0 µM): 54%
- per cent of control (IKBKE (human); compound 1.0 µM): 86%
- per cent of control (IKBKE (human); compound 10.0 µM): 64%
